Type in all cases: biochemical
Assay [1] concerns the target T1, CYP3A4 (Homo sapiens, UniProt P08684). Nature of the assay: Determination of compound Kiapp against recombinant CYP3A4 enzyme (BFC fluorescent substrate). Put shortly: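 Recombinant CYP3A4 (5.5 or 8 nM, with or without b5 depending on source) pre-incubated with inhibitor ≥30 min at room temperature in 100 mM sodium phosphate pH 7.0, 5 mM TCEP, 2% DMF. Reaction started with 200 uM NADPH and 5 uM BFC; initial fluorescence rates over 5 min fitted to Morrison tight-binding (non-partial) or Szedlacsek (partial) equations for Kiapp.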

In assay [2] the target is T1, CYP3A4. Nature of the assay: Determination of IC50 against CYP3A4 by measurement of inhibition of testosterone metabolism (human liver microsomes, 6-β-OH-testosterone by LC-MS/MS). Details: 0.1 mg/mL human liver microsomes. The settings on record: read-out: IC50 (Testo.). Put shortly: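 Human liver microsomes (0.1 mg/mL) incubated with 25 μM testosterone and 1 mM NADPH in 100 mM potassium phosphate, pH 7.4, for eight minutes. 6-β-OH-testosterone measured by LC-MS/MS in MRM mode against an internal standard and quantified from a metabolite standard curve.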

Assay [3] has as its target T1, CYP3A4. Nature of the assay: Determination of IC50 against CYP3A4 by measurement of inhibition of midazolam metabolism (human liver microsomes, 1-hydroxymidazolam by LC-MS/MS). Also on record: 0.1 mg/mL human liver microsomes. The conditions noted are these: 2 μM midazolam, 0.1 mg/mL human liver microsomes. Put shortly:
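Human liver microsomes (0.1 mg/mL) incubated 8 min with 2 μM midazolam and 1 mM NADPH in 100 mM potassium phosphate, pH 7.4. 1-Hydroxymidazolam quantified by LC-MS/MS (MRM) as peak area ratio to internal standard against a metabolite standard curve.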

Setting [4] is: Baculo. enzyme preparation, read-out: Kiapp (BFC, Baculo.).
[5] abbreviates: Super. enzyme preparation, read-out: Kiapp (BFC, Super.).

Where two headings read alike, the source gives them in different places.

T1 sequence (P08684 whole entry): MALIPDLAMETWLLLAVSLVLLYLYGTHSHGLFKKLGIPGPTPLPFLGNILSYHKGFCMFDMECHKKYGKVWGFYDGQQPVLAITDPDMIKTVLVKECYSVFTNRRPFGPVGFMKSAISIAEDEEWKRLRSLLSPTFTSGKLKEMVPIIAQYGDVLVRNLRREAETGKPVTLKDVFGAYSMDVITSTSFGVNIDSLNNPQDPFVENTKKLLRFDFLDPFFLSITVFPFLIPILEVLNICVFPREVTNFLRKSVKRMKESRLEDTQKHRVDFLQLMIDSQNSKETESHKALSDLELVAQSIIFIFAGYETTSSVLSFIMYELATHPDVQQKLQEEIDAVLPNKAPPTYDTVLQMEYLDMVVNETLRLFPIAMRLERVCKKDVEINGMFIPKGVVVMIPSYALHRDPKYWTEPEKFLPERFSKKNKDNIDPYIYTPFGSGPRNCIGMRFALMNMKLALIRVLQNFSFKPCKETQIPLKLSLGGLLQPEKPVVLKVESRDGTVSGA

In the case of `CCOCCNC(=O)c1ccccc1S(=O)(=O)Nc1cnccc1OC` [Example 223, N-(2-ethoxyethyl)-2-{[(4-methoxypyridin-3-yl)amino]sulfonyl}benzamide], the results for the Ki in assay [1] (setting [4]) and in assay [1] (setting [5]) were over 1 µM and 0.326 µM, respectively. In addition, the IC50 in assay [2] came to 0.745 µM; in assay [3], 0.26 µM.
Regarding `COc1ccncc1NS(=O)(=O)c1ccccc1C(=O)NCCOc1ccccc1` [Example 224, 2-{[(4-methoxypyridin-3-yl)amino]sulfonyl}-N-(2-phenoxyethyl)benzamide], the results for the Ki in assay [1] (setting [4]) and in assay [1] (setting [5]) were 0.399 µM and 0.0568 µM, respectively. Moreover, the IC50 in assay [2] was found to be 0.056 µM; in assay [3], 0.029 µM.
For the molecule `Cc1cncc(NS(=O)(=O)c2ccccc2C(=O)NCCc2ccccc2OC(F)(F)F)c1` [Example 225, 2-{[(5-methylpyridin-3-yl)amino]sulfonyl}-N-{2-[2-(trifluoromethoxy)phenyl]ethyl}benzamide], the values for the Ki in assay [1] (setting [4]) and in assay [1] (setting [5]) were 0.0157 µM and 0.0017 µM, respectively. Moreover, the IC50 in assay [2] was 0.009 µM; in assay [3], 0.007 µM.
Regarding `Cc1cncc(NS(=O)(=O)c2ccccc2C(=O)NCCc2ccccc2Cl)c1` [Example 226, N-[2-(2-chlorophenyl)ethyl]-2-{[(5-methylpyridin-3-yl)amino]sulfonyl}benzamide], the Ki in assay [1] (setting [4]) worked out at 0.0164 µM; in assay [1] (setting [5]), 0.0026 µM. Besides, the IC50 in assay [2] was 0.008 µM; in assay [3] it was under 0.003 µM.
Take `Cc1cncc(NS(=O)(=O)c2ccccc2C(=O)NCCc2ccccc2F)c1` [Example 227, N-[2-(2-fluorophenyl)ethyl]-2-{[(5-methylpyridin-3-yl)amino]sulfonyl}benzamide]: the results for the Ki in assay [1] (setting [4]) and in assay [1] (setting [5]) were 0.0868 µM and 0.0086 µM, respectively. Further, the half-inhibitory concentration (IC50) was found to be 0.011 µM in assay [2] and 0.005 µM in assay [3].
With `CCOCCNC(=O)c1ccccc1S(=O)(=O)Nc1cncc(C)c1` [Example 228, N-(2-ethoxyethyl)-2-{[(5-methylpyridin-3-yl)amino]sulfonyl}benzamide], the Ki was over 1 µM in assay [1] (setting [4]) and 0.12 µM in assay [1] (setting [5]). For the same molecule, the results for the IC50 in assay [2] and in assay [3] were 0.161 µM and 0.053 µM, respectively.
Regarding `Cc1cncc(NS(=O)(=O)c2ccccc2C(=O)NCCOc2ccccc2)c1` [Example 229, 2-{[(5-methylpyridin-3-yl)amino]sulfonyl}-N-(2-phenoxyethyl)benzamide], the values for the Ki in assay [1] (setting [4]) and in assay [1] (setting [5]) were 0.203 µM and 0.0243 µM, respectively. In addition, the figures for the IC50 in assay [2] and in assay [3] were 0.037 µM and 0.016 µM, respectively.
On to `CCCCN(C)C(=O)c1ccccc1S(=O)(=O)Nc1cnccc1C` [Example 230, N-butyl-N-methyl-2-{[(4-methylpyridin-3-yl)amino]sulfonyl}benzamide], for which the Ki turned out to be 0.373 µM in assay [1] (setting [4]) and 0.0784 µM in assay [1] (setting [5]). Further, the IC50 is 0.087 µM in assay [2] and 0.042 µM in assay [3].
The like results for `COc1cncc(NS(=O)(=O)c2ccccc2C(=O)N2CCC(c3ccccc3)CC2)c1` [Example 231, N-(5-methoxypyridin-3-yl)-2-[(4-phenylpiperidin-1-yl)carbonyl]benzenesulfonamide] were, in that order, 0.0591 µM, 0.0089 µM, 0.031 µM and 0.02 µM.
Consider `COc1cncc(NS(=O)(=O)c2ccccc2C(=O)N[C@H]2C[C@@H]2c2ccccc2)c1` [Example 232, 2-{[(5-methoxypyridin-3-yl)amino]sulfonyl}-N-[(1S2R)-2-phenylcyclopropyl]benzamide], for which the figures for the Ki in assay [1] (setting [4]) and in assay [1] (setting [5]) were 0.0994 µM and 0.0115 µM, respectively. Further, the results for the IC50 in assay [2] and in assay [3] were 0.032 µM and 0.028 µM, respectively.
In the case of `COc1cncc(NS(=O)(=O)c2ccccc2C(=O)NCc2ccc(S(C)(=O)=O)cc2)c1` [Example 233, 2-{[(5-methoxypyridin-3-yl)amino]sulfonyl}-N-[4-(methylsulfonyl)benzyl]benzamide], the Ki in assay [1] (setting [4]) was over 1 µM; in assay [1] (setting [5]) it was 0.182 µM. Besides, the IC50 was 0.195 µM in assay [2] and 0.067 µM in assay [3].
The matching figures for `COc1cncc(NS(=O)(=O)c2ccccc2C(=O)NCCCc2ccccc2OC)c1` [Example 234, N-[3-(2-methoxyphenyl)propyl]-2-{[(5-methoxypyridin-3-yl)amino]sulfonyl}benzamide]: 0.0379 µM, 0.0081 µM, over 0.75 µM and over 0.75 µM.
As for `COc1cncc(NS(=O)(=O)c2ccccc2C(=O)NCCCc2ccccc2)c1` [Example 235, 2-{[(5-methoxypyridin-3-yl)amino]sulfonyl}-N-(3-phenylpropyl)benzamide], the Ki in assay [1] (setting [4]) was determined as 0.107 µM; in assay [1] (setting [5]), 0.0087 µM. Moreover, the half-maximal inhibitory concentration (IC50) in assay [2] is 0.019 µM; in assay [3], 0.01 µM.
In the case of `COCCCNC(=O)c1ccccc1S(=O)(=O)Nc1cncc(OC)c1` [Example 236, N-(3-methoxypropyl)-2-{[(5-methoxypyridin-3-yl)amino]sulfonyl}benzamide], the Ki is over 1 µM in assay [1] (setting [4]) and 0.142 µM in assay [1] (setting [5]). The values for the IC50 in assay [2] and in assay [3] were 0.223 µM and 0.132 µM, respectively.
On to `CCOCCNC(=O)c1ccccc1S(=O)(=O)Nc1cncc(OC)c1` [Example 237, N-(2-ethoxyethyl)-2-{[(5-methoxypyridin-3-yl)amino]sulfonyl}benzamide], for which the Ki in assay [1] (setting [4]) amounted to 0.979 µM; in assay [1] (setting [5]) it was 0.142 µM. The IC50 was found to be 0.215 µM in assay [2] and 0.125 µM in assay [3].
For the molecule `COc1cncc(NS(=O)(=O)c2ccccc2C(=O)NCCOc2ccccc2)c1` [Example 238, 2-{[(5-methoxypyridin-3-yl)amino]sulfonyl}-N-(2-phenoxyethyl)benzamide], the Ki in assay [1] (setting [4]) came to 0.23 µM; in assay [1] (setting [5]), 0.018 µM. Also, the results for the IC50 in assay [2] and in assay [3] were 0.031 µM and 0.017 µM, respectively.
`COCCNC(=O)c1ccccc1S(=O)(=O)Nc1cncc(OC)c1` [Example 239, N-(2-methoxyethyl)-2-{[(5-methoxypyridin-3-yl)amino]sulfonyl}benzamide]: the values for the Ki in assay [1] (setting [4]) and in assay [1] (setting [5]) were 0.849 µM and 0.191 µM, respectively. For the same molecule, the values for the IC50 in assay [2] and in assay [3] were 0.301 µM and 0.163 µM, respectively.
With `COc1cncc(NS(=O)(=O)c2ccccc2C(=O)NCCc2ccccc2Cl)c1` [Example 240, N-[2-(2-chlorophenyl)ethyl]-2-{[(5-methoxypyridin-3-yl)amino]sulfonyl}benzamide], the Ki in assay [1] (setting [4]) was found to be 0.022 µM; in assay [1] (setting [5]), 0.0032 µM. The IC50 in assay [2] was found to be 0.009 µM; in assay [3], 0.004 µM.
The matching figures for `COc1cncc(NS(=O)(=O)c2ccccc2C(=O)NCCOC(C)C)c1` [Example 241, N-(2-isopropoxyethyl)-2-{[(5-methoxypyridin-3-yl)amino]sulfonyl}benzamide]: 0.751 µM, 0.097 µM, 0.15 µM and 0.077 µM.
As to `COc1cncc(NS(=O)(=O)c2ccc(OCCN3CCNCC3)cc2C(=O)N(C)C(C)C)c1` [Example 242, N-isopropyl-2-{[(5-methoxypyridin-3-yl)amino]sulfonyl}-N-methyl-5-(2-piperazin-1-ylethoxy)benzamide], the Ki is 0.246 µM in assay [1] (setting [4]) and 0.2 µM in assay [1] (setting [5]). In addition, the results for the IC50 in assay [2] and in assay [3] were 0.289 µM and 0.254 µM, respectively.
`COc1cncc(NS(=O)(=O)c2ccc(OC3CCNCC3)cc2C(=O)N(C)C(C)C)c1` [Example 243, N-isopropyl-2-{[(5-methoxypyridin-3-yl)amino]sulfonyl}-N-methyl-5-(piperidin-4-yloxy)benzamide]: the Ki in assay [1] (setting [4]) was 0.0284 µM; in assay [1] (setting [5]), 0.0858 µM. Besides, the IC50 in assay [2] came to 0.264 µM; in assay [3], 0.069 µM.
For `COCCN(C(=O)c1ccccc1S(=O)(=O)Nc1cncc(OC)c1)C(C)C` [Example 244, N-isopropyl-N-(2-methoxyethyl)-2-{[(5-methoxypyridin-3-yl)amino]sulfonyl}benzamide], the Ki in assay [1] (setting [4]) worked out at 0.0456 µM; in assay [1] (setting [5]) it was 0.0268 µM. For the same molecule, the values for the IC50 in assay [2] and in assay [3] were 0.052 µM and under 0.016 µM, respectively.
As to `CCCN(C)C(=O)c1ccccc1S(=O)(=O)Nc1cncc(OC)c1` [Example 245, 2-{[(5-methoxypyridin-3-yl)amino]sulfonyl}-N-methyl-N-propylbenzamide], the Ki in assay [1] (setting [4]) was found to be 0.164 µM; in assay [1] (setting [5]) it was 0.0187 µM. Besides, the results for the IC50 in assay [2] and in assay [3] were 0.063 µM and 0.029 µM, respectively.
The matching figures for `CCCN(CCOC)C(=O)c1ccccc1S(=O)(=O)Nc1cncc(OC)c1` [Example 246, N-(2-methoxyethyl)-2-{[(5-methoxypyridin-3-yl)amino]sulfonyl}-N-propylbenzamide]: 0.0503 µM, 0.0185 µM, 0.072 µM and 0.036 µM.
The like results for `COc1cncc(NS(=O)(=O)c2ccc(OCCN3CCOCC3)cc2C(=O)N(C)C(C)C)c1` [Example 247, N-isopropyl-2-{[(5-methoxypyridin-3-yl)amino]sulfonyl}-N-methyl-5-(2-morpholin-4-ylethoxy)benzamide] were, in that order, 0.0484 µM, 0.0889 µM, 0.108 µM and 0.054 µM.

The values are drawn from patent US7868026B2, “Therapeutic compounds” (Pfizer Inc., priority 2005, dated 2011).
